The text below walks through data of patent publication US20240228506A1, “RIPK1 INHIBITORS AND METHODS OF USE” (Merck Sharp & Dohme LLC, priority 2021, published 2024).

This assay deals with T1, GST-RIPK1 (recombinant GST-RIPK1 kinase domain (residues 1-327)) (Homo sapiens, UniProt Q13546).
T1 construct: recombinant GST-RIPK1 kinase domain (residues 1-327) enzyme; made in house; host or cells: baculovirus-transfected Sf21 insect cells
T1 sequence (Q13546 1-327): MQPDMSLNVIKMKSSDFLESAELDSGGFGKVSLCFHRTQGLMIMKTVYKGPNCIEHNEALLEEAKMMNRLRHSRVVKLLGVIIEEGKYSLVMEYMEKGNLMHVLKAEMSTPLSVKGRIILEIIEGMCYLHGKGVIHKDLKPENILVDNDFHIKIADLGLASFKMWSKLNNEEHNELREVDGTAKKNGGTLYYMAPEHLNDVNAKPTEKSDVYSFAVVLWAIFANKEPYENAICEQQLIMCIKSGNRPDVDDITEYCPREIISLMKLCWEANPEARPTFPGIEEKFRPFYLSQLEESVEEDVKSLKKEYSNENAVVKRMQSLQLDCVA
The experiment in a line: RIPK1-ADP-Glo enzymatic assay. The format is biochemical. The conditions noted are these: 25 nM GST-RIPK1, 300 μM ATP, 3 μM dephosphorylated-MBP; 30 minutes pre-incubation, 150 minutes reaction; ten-point titration. As to the method: The enzymatic activity of RIPK1 is measured using an assay derived from ADP-Glo kit (Promega™), which provides a luminescent-based ADP detection system. Specifically, the ADP generated by RIPK1 kinase is proportionally detected as luminescent signals in a homogenous fashion. In this context, the assessment of the inhibitory effect of small molecules (EC50) is measured by the effectiveness of the compounds to inhibit the ATP to ADP conversion by RIPK1. In this assay, the potency (EC50) of each compound was determined from a ten-point (1:3 serial dilution; top compound concentration of 100000 nM) titration curve using the following outlined procedure. To each well of a white ProxiPlus 384 well-plate, […] of compound (1% DMSO in final assay volume of 3 μL) was dispensed, followed by the addition of 2 μL of 1× assay buffer (25 mM Hepes 7.3, 20 mM MgCl2, 50 mM NaCl, 1 mM DTT, 0.005% Tween20, and 0.02% BSA) containing 37.5 nM of GST-RIPK1 (recombinant GST-RIPK1 kinase domain (residues 1-327) enzyme produced from baculovirus-transfected Sf21 cells: MW=62 kDa). Plates were placed in an ambient temperature humidified chamber for a 30 minutes pre-incubation with compound. Subsequently, each reaction was initiated by the addition of 1 μL 1×assay buffer containing 900 μM ATP and […]. The final reaction in each well of 3 μL consists of 25 nM of GST-RIPK1, 300 μM ATP, and 3 μM dephosphorylated-MBP. Kinase reactions were allowed to proceed for 150 minutes prior to adding ADP-Glo reagents per Promega's outlined kit protocol. Dose-response curves were generated by plotting percent effect (% product conversion; Y-axis) vs. Log10 compound concentrations (X-axis). EC50 values were calculated using a non-linear regression, four-parameters sigmoidal dose-response model.
In the case of `O=C(N1C[C@@H]2C[C@H]1c1cncc(C#CC3COC3)c1O2)C12CCC(F)(CC1)C2` [Compound 2-119, (4-fluorobicyclo[2.2.1]heptan-1-yl)((2S,5S)-9-(oxetan-3-ylethynyl)-2,3-dihydro-2,5-methanopyrido[3,4-f][1,4]oxazepin-4(5H)-yl)methanone], the IC50 stood at 57 nM.

Regarding `O=C(N1C[C@@H]2C[C@H]1c1cncc(F)c1O2)C12CCC(F)(CC1)CC2` [Compound 2-15, ((2S,5S)-9-fluoro-2,3-dihydro-2,5-methanopyrido[3,4-f][1,4]oxazepin-4(5H)-yl)(4-fluorobicyclo[2.2.2]octan-1-yl)methanone], the IC50 is 81 nM.

Regarding `CC12CCC(C(=O)N3C[C@@H]4C[C@H]3c3cncc(C#N)c3O4)(CC1)C2` [Compound 1-94, (2S,5S)-4-(4-methylbicyclo[2.2.1]heptane-1-carbonyl)-2,3,4,5-tetrahydro-2,5-methanopyrido[3,4-f][1,4]oxazepine-9-carbonitrile], the IC50 turned out to be 15 nM.

Take `O=C(N1C[C@@H]2C[C@H]1c1cncc(C#Cc3ccccc3)c1O2)C12CCC(C(F)(F)F)(CC1)C2` [Compound 2-64, ((2S,5S)-9-(phenylethynyl)-2,3-dihydro-2,5-methanopyrido[3,4-f][1,4]oxazepin-4(5H)-yl)(4-(trifluoromethyl)bicyclo [2.2.1]heptan-1-yl)methanone]: the IC50 turned out to be 16 nM.

Regarding `CC(C)(OC(F)(F)F)C(=O)N1C[C@@H]2C[C@H]1c1cncc(C#N)c1O2` [Compound 1-103, (2S,5S)-4-(2-methyl-2-(trifluoromethoxy)propanoyl)-2,3,4,5-tetrahydro-2,5-methanopyrido[3,4-f][1,4]oxazepine-9-carbonitrile], the IC50 was determined as 163 nM.

Take `CC(C(=O)N1C[C@@H]2C[C@H]1c1cncc(C#N)c1O2)(C(F)F)C1CC1` (single isomer, unassigned) [Compound 1-89, (2S,5S)-4-(2-(R or S)-cyclopropyl-3,3-difluoro-2-methylpropanoyl)-2,3,4,5-tetrahydro-2,5-methanopyrido[3,4-f][1,4]oxazepine-9-carbonitrile]: the IC50 turned out to be 43 nM.

`CC1(C(=O)N2C[C@@H]3C[C@H]2c2cncc(C#N)c2O3)CC1` [Compound 1-76, (2S,5S)-4-(1-methylcyclopropane-1-carbonyl)-2,3,4,5-tetrahydro-2,5-methanopyrido[3,4-f][1,4]oxazepine-9-carbonitrile]: the IC50 was 780 nM.

Turning to `CC(C)(C)C(=O)N1C[C@@H]2C[C@H]1c1cncc(C#Cc3cc(C(F)(F)F)ccn3)c1O2` [Compound 2-35, 2,2-dimethyl-1-((2S,5S)-9-((4-(trifluoromethyl)pyridin-2-yl)ethynyl)-2,3-dihydro-2,5-methanopyrido[3,4-f][1,4]oxazepin-4(5H)-yl)propan-1-one], the 50% inhibitory concentration (IC50) was determined as 176 nM.

In the case of `O=C(N1C[C@@H]2C[C@H]1c1cncc(C#Cc3cccnc3)c1O2)C12CCC(F)(CC1)C2` [Compound 2-101, (4-fluorobicyclo[2.2.1]heptan-1-yl)((2S,5S)-9-(pyridin-3-ylethynyl)-2,3-dihydro-2,5-methanopyrido[3,4-f][1,4]oxazepin-4(5H)-yl)methanone], the IC50 was found to be 12 nM.

Consider `CC(C)(C(=O)N1C[C@@H]2C[C@H]1c1cncc(C#Cc3ccc(F)cc3)c1O2)C(F)F` [Compound 2-41, 3,3-difluoro-1-((2S,5S)-9-((4-fluorophenyl)ethynyl)-2,3-dihydro-2,5-methanopyrido[3,4-f][1,4]oxazepin-4(5H)-yl)-2,2-dimethylpropan-1-one], for which the IC50 was 56 nM.

For the compound `CC1(C(=O)N2C[C@@H]3C[C@H]2c2cncc(C#N)c2O3)CCC1` [Compound 1-12, (2S,5S)-4-(1-methylcyclobutane-1-carbonyl)-2,3,4,5-tetrahydro-2,5-methanopyrido[3,4-f][1,4]oxazepine-9-carbonitrile], the IC50 is 47 nM.

With `CC(C)(C)c1ncc(C#Cc2cncc3c2O[C@H]2C[C@@H]3N(C(=O)C(C)(C)C(F)F)C2)cn1` [Compound 2-73, 1-((2S,5S)-9-((2-(tert-butyl)pyrimidin-5-yl)ethynyl)-2,3-dihydro-2,5-methanopyrido[3,4-f][1,4]oxazepin-4(5H)-yl)-3,3-difluoro-2,2-dimethylpropan-1-one], the IC50 was found to be 19 nM.

On to `N#CC12CCC(C(=O)N3C[C@@H]4C[C@H]3c3cncc(F)c3O4)(C1)C2` [Compound 2-24, 4-((2S,5S)-9-fluoro-2,3,4,5-tetrahydro-2,5-methanopyrido[3,4-f][1,4]oxazepine-4-carbonyl)bicyclo[2.1.1] hexane-1-carbonitrile], for which the IC50 came to 111 nM.

`CC1(C(=O)N2C[C@@H]3C[C@H]2c2cncc(Cl)c2O3)CCCC1` [Compound 2-25, ((2S,5S)-9-chloro-2,3-dihydro-2,5-methanopyrido[3,4-f][1,4]oxazepin-4(5H)-yl)(1-methylcyclopentyl) methanone]: the IC50 was found to be 79 nM.

On to `CCC#Cc1cncc2c1O[C@H]1C[C@@H]2N(C(=O)C23CCC(F)(CC2)C3)C1` [Compound 2-117], for which the IC50 came to 43 nM.

As to `N#Cc1cncc2c1O[C@H]1C[C@@H]2N(C(=O)C23CCCC2C3)C1` (single isomer, unassigned) [Compound 1-33, (2S,5S)-4-[(1R,5R or 1S,5S)-bicyclo[3.1.0]hexane-1-carbonyl]-2,3,4,5-tetrahydro-2,5-methanopyrido[3,4-f][1,4]oxazepine-9-carbonitrile], the IC50 was 94 nM.

Take `CC(C)(C(=O)N1C[C@@H]2C[C@H]1c1cncc(C#Cc3cnc4ncnn4c3)c1O2)C(F)F` [Compound 2-79, 1-((2S,5S)-9-([1,2,4]triazolo[1,5-a]pyrimidin-6-ylethynyl)-2,3-dihydro-2,5-methanopyrido[3,4-f][1,4]oxazepin-4(5H)-yl)-3,3-difluoro-2,2-dimethylpropan-1-one]: the IC50 amounted to 72 nM.

For the compound `N#Cc1cncc2c1O[C@H]1C[C@@H]2N(C(=O)C2(F)CCN(c3ccnc(Cl)c3)CC2)C1` [Compound 1-72, (2S,5S)-4-(1-(2-chloropyridin-4-yl)-4-fluoropiperidine-4-carbonyl)-2,3,4,5-tetrahydro-2,5-methanopyrido[3,4-f][1,4]oxazepine-9-carbonitrile], the IC50 came to 35 nM.

`CC(C)(C(=O)N1C[C@@H]2C[C@H]1c1cncc(C#Cc3cncc(Cl)c3)c1O2)C(F)F` [Compound 2-90, 1-((2S,5S)-9-((5-chloropyridin-3-yl)ethynyl)-2,3-dihydro-2,5-methanopyrido[3,4-f][1,4]oxazepin-4(5H)-yl)-3,3-difluoro-2,2-dimethylpropan-1-one]: the IC50 was 28 nM.

As to `N#Cc1cncc2c1O[C@H]1C[C@@H]2N(C(=O)C23CCC(CC2(F)F)C3)C1` (single isomer, unassigned) [Compound 1-48, (2S,5S)-4-[(S or R)-2,2-difluorobicyclo[2.2.1]heptane-1-carbonyl]-2,3,4,5-tetrahydro-2,5-methanopyrido[3,4-f][1,4]oxazepine-9-carbonitrile], the IC50 turned out to be 5 nM.

As for `CN1CC2CC1(C(=O)N1C[C@@H]3C[C@H]1c1cncc(C#N)c1O3)C2` [Compound 1-109, (2S,5S)-4-(2-methyl-2-azabicyclo[2.1.1]hexane-1-carbonyl)-2,3,4,5-tetrahydro-2,5-methanopyrido[3,4-f][1,4]oxazepine-9-carbonitrile], the IC50 came to 241 nM.

As for `CC(C)(C(=O)N1C[C@@H]2C[C@H]1c1cncc(C#Cc3cccc(F)c3)c1O2)C(F)F` [Compound 2-42, 3,3-difluoro-1-((2S,5S)-9-((3-fluorophenyl)ethynyl)-2,3-dihydro-2,5-methanopyrido[3,4-f][1,4]oxazepin-4(5H)-yl)-2,2-dimethylpropan-1-one], the IC50 was 42 nM.

In the case of `C[C@@H]1C2CN(C(=O)C34CCC(C(F)(F)F)(CC3)C4)[C@H]1c1cncc(C#N)c1O2` (single isomer, unassigned) [Compound 5-4], the IC50 worked out at 165 nM.

Turning to `COc1ccccc1C#Cc1cncc2c1O[C@H]1C[C@@H]2N(C(=O)C23CCC(C(F)(F)F)(CC2)C3)C1` [Compound 2-70, ((2S,5S)-9-((2-methoxyphenyl)ethynyl)-2,3-dihydro-2,5-methanopyrido[3,4-f][1,4]oxazepin-4(5H)-yl)(4-(trifluoromethyl)bicyclo [2.2.1]heptan-1-yl)methanone], the IC50 came out at 72 nM.

What is called IC50 is the point on the concentration scale where inhibition reaches its midpoint.
